Measurements from the CheMixHub viscosity set.

Experiment: xn = mol fraction of the nth substance listed

OCCO + CN(C)C=O
Details | viscosity [mPa·s]
293.15 K, 101 kPa, x2 = 0.0864 | 16.12
293.15 K, 101 kPa, x2 = 0.1758 | 11.93
293.15 K, 101 kPa, x2 = 0.3623 | 6.277
293.15 K, 101 kPa, x2 = 0.5609 | 3.23
293.15 K, 101 kPa, x2 = 0.7734 | 1.66
293.15 K, 101 kPa, x2 = 0.8848 | 1.191
298.15 K, 100 kPa, x1 = 0.1049 | 1.27
298.15 K, 100 kPa, x1 = 0.2019 | 1.64
298.15 K, 100 kPa, x1 = 0.3063 | 2.27
298.15 K, 100 kPa, x1 = 0.3993 | 2.9
298.15 K, 100 kPa, x1 = 0.4986 | 3.95
298.15 K, 100 kPa, x1 = 0.6048 | 5.35
298.15 K, 100 kPa, x1 = 0.7069 | 7.24
298.15 K, 100 kPa, x1 = 0.8032 | 9.44
298.15 K, 100 kPa, x1 = 0.9054 | 12.85
298.15 K, 101 kPa, x1 = 0.5408 | 3.065
298.15 K, 101 kPa, x2 = 0.0864 | 13.24
298.15 K, 101 kPa, x2 = 0.1758 | 9.921
298.15 K, 101 kPa, x2 = 0.3623 | 5.381
298.15 K, 101 kPa, x2 = 0.5609 | 2.852
298.15 K, 101 kPa, x2 = 0.7734 | 1.518
298.15 K, 101 kPa, x2 = 0.8848 | 1.105
303.15 K, 100 kPa, x1 = 0.1049 | 1.23
303.15 K, 100 kPa, x1 = 0.2019 | 1.52
303.15 K, 100 kPa, x1 = 0.3063 | 2.03
303.15 K, 100 kPa, x1 = 0.3993 | 2.63
303.15 K, 100 kPa, x1 = 0.4986 | 3.6
303.15 K, 100 kPa, x1 = 0.6048 | 4.53
303.15 K, 100 kPa, x1 = 0.7069 | 6.12
303.15 K, 100 kPa, x1 = 0.8032 | 7.92
303.15 K, 100 kPa, x1 = 0.9054 | 10.48
303.15 K, 101 kPa, x2 = 0.0864 | 10.91
303.15 K, 101 kPa, x2 = 0.1758 | 8.25
303.15 K, 101 kPa, x2 = 0.3623 | 4.639
303.15 K, 101 kPa, x2 = 0.5609 | 2.551
303.15 K, 101 kPa, x2 = 0.7734 | 1.392
303.15 K, 101 kPa, x2 = 0.8848 | 1.027
308.15 K, 100 kPa, x1 = 0.1049 | 1.15
308.15 K, 100 kPa, x1 = 0.2019 | 1.4
308.15 K, 100 kPa, x1 = 0.3063 | 1.81
308.15 K, 100 kPa, x1 = 0.3993 | 2.41
308.15 K, 100 kPa, x1 = 0.4986 | 3.16
308.15 K, 100 kPa, x1 = 0.6048 | 4.05
308.15 K, 100 kPa, x1 = 0.7069 | 5.18
308.15 K, 100 kPa, x1 = 0.8032 | 6.83
308.15 K, 100 kPa, x1 = 0.9054 | 8.79
308.15 K, 101 kPa, x1 = 0.0257 | 0.758
308.15 K, 101 kPa, x1 = 0.0458 | 0.816
308.15 K, 101 kPa, x1 = 0.0974 | 0.872
308.15 K, 101 kPa, x1 = 0.1399 | 0.956
308.15 K, 101 kPa, x1 = 0.1921 | 1.151
308.15 K, 101 kPa, x1 = 0.2568 | 1.132
308.15 K, 101 kPa, x1 = 0.2919 | 1.453
308.15 K, 101 kPa, x1 = 0.3715 | 1.288
308.15 K, 101 kPa, x1 = 0.3822 | 1.814
308.15 K, 101 kPa, x1 = 0.4762 | 1.898
308.15 K, 101 kPa, x1 = 0.4917 | 2.392
308.15 K, 101 kPa, x1 = 0.5807 | 2.801
308.15 K, 101 kPa, x1 = 0.5882 | 3.131
308.15 K, 101 kPa, x1 = 0.6745 | 3.878
308.15 K, 101 kPa, x1 = 0.6889 | 4.137
308.15 K, 101 kPa, x1 = 0.7677 | 5.167
308.15 K, 101 kPa, x1 = 0.783 | 5.498
308.15 K, 101 kPa, x1 = 0.8456 | 6.582
308.15 K, 101 kPa, x1 = 0.885 | 7.454
308.15 K, 101 kPa, x1 = 0.9229 | 8.355
308.15 K, 101 kPa, x1 = 0.9484 | 9.02
308.15 K, 101 kPa, x1 = 0.968 | 10.48
308.15 K, 101 kPa, x2 = 0.0864 | 9.133
308.15 K, 101 kPa, x2 = 0.1758 | 7.023
308.15 K, 101 kPa, x2 = 0.3623 | 4.044
308.15 K, 101 kPa, x2 = 0.5609 | 2.289
308.15 K, 101 kPa, x2 = 0.7734 | 1.285
308.15 K, 101 kPa, x2 = 0.8848 | 0.957
313.15 K, 100 kPa, x1 = 0.1049 | 1.08
313.15 K, 100 kPa, x1 = 0.2019 | 1.28
313.15 K, 100 kPa, x1 = 0.3063 | 1.67
313.15 K, 100 kPa, x1 = 0.3993 | 2.24
313.15 K, 100 kPa, x1 = 0.4986 | 2.82
313.15 K, 100 kPa, x1 = 0.6048 | 3.47
313.15 K, 100 kPa, x1 = 0.7069 | 4.54
313.15 K, 100 kPa, x1 = 0.8032 | 5.68
313.15 K, 100 kPa, x1 = 0.9054 | 7.45
313.15 K, 101 kPa, x2 = 0.0864 | 7.725
313.15 K, 101 kPa, x2 = 0.1758 | 5.998
313.15 K, 101 kPa, x2 = 0.3623 | 3.551
313.15 K, 101 kPa, x2 = 0.5609 | 2.064
313.15 K, 101 kPa, x2 = 0.7734 | 1.185
313.15 K, 101 kPa, x2 = 0.8848 | 0.8951
318.15 K, 100 kPa, x1 = 0.1049 | 0.96
318.15 K, 100 kPa, x1 = 0.2019 | 1.21
318.15 K, 100 kPa, x1 = 0.3063 | 1.53
318.15 K, 100 kPa, x1 = 0.3993 | 2.12
318.15 K, 100 kPa, x1 = 0.4986 | 2.43
318.15 K, 100 kPa, x1 = 0.6048 | 3.05
318.15 K, 100 kPa, x1 = 0.7069 | 3.98
318.15 K, 100 kPa, x1 = 0.8032 | 5.04
318.15 K, 100 kPa, x1 = 0.9054 | 6.45
318.15 K, 101 kPa, x2 = 0.0864 | 6.606
318.15 K, 101 kPa, x2 = 0.1758 | 5.171
318.15 K, 101 kPa, x2 = 0.3623 | 3.139
318.15 K, 101 kPa, x2 = 0.5609 | 1.873
318.15 K, 101 kPa, x2 = 0.7734 | 1.096
318.15 K, 101 kPa, x2 = 0.8848 | 0.8415
323.15 K, 100 kPa, x1 = 0.1049 | 0.87
323.15 K, 100 kPa, x1 = 0.2019 | 1.08
323.15 K, 100 kPa, x1 = 0.3063 | 1.38
323.15 K, 100 kPa, x1 = 0.3993 | 1.92
323.15 K, 100 kPa, x1 = 0.4986 | 2.19
323.15 K, 100 kPa, x1 = 0.6048 | 2.8
323.15 K, 100 kPa, x1 = 0.7069 | 3.53
323.15 K, 100 kPa, x1 = 0.8032 | 4.4
323.15 K, 100 kPa, x1 = 0.9054 | 5.59
323.15 K, 101 kPa, x2 = 0.0864 | 5.671
323.15 K, 101 kPa, x2 = 0.1758 | 4.507
323.15 K, 101 kPa, x2 = 0.3623 | 2.789
323.15 K, 101 kPa, x2 = 0.5609 | 1.711
323.15 K, 101 kPa, x2 = 0.7734 | 1.022
323.15 K, 101 kPa, x2 = 0.8848 | 0.7911
